Measured values taken from PMC8481502, “Bovine NK-lysin peptides exert potent antimicrobial activity against multidrug-resistant Salmonella outbreak isolates” (Scientific Reports, 2021).
Peptide text beside a SMILES is read from it.

Key:
Salmonella SX238 = test: LIVE/DEAD BacLight staining, confocal laser scanning microscopy; format: cell-based, Salmonella enterica serovar I 4,[5],12:i:-; settings: 5 µM peptide
Method: The viabilities of bacteria following incubation with NK2A and Sc-NK2A were determined using culture-independent (function of the membrane integrity of the bacteria) staining technique by using LIVE/DEAD™ BacLight™ bacterial viability kit (for microscopy) as described previously. Bacteria in each treatment was visualized using a Nikon A1R + laser scanning confocal microscope (Nikon Instruments, Melville, NY) as described previously. Images were obtained using plan Apo 60 × objective lens (oil) at numerical aperture 1.4. Final figures were prepared using Adobe Photoshop Elements 11.

[1] = system: Salmonella SX238 outer- and inner-membranes; test: Transmission electron microscopy of peptide-treated bacteria; format: cell-based, Salmonella enterica serovar I 4,[5],12:i:-; settings: 20 µM peptide, 1 h at 37 °C, ~1 × 10^7 CFU/well in PBS
Method: Morphological changes of bacteria following incubation with NK2A and Sc-NK2A peptides were studied by TEM. An overnight culture of Salmonella (isolate SX238) was centrifuged and resuspended in PBS. One hundred microliters of bacterial suspension were placed in a Honeycomb plate (~ 1 × 10^7 CFU/well) and NK2A, Sc-NK2A (20 µM), and PBS were added and incubated at 37 °C with continuous shaking for 1 h. The bacterial suspensions were mixed with an equal volume of 3% glutaraldehyde in 0.1 M cacodylate buffer (pH 7.4) and processed for TEM as described before. Sections were examined with a FEI Tecnai G2 Biotwin (FEI Co., Hillboro, OR) TEM and images were taken with Advanced Microscopy Technologies (AMT Inc., Danvers, […]) imaging camera.

[2] = system: Salmonella enterica serotype Typhimurium LPS; growth of isolate SX238; test: NK2A-LPS binding by growth curve assay after LPS preincubation; format: cell-based
Method: The binding of NK2A to Salmonella LPS was studied by growth curve assay and TEM. Five micromolar NK2A (~ 2.2 µg/well) was preincubated with different amounts of Salmonella enterica serotype Typhimurium LPS (Sigma; LPS = 0, 0.5, 1.1, 2.2, 4.4, 8.8 µg/well, final volume of LPS and NK2A = 20 µL) at 37 °C in a honeycomb plate with continuous shaking for 30 min. Overnight Salmonella (isolate SX238) culture was diluted to ~ 1 × 10^6 CFU/mL and 100 µL was transferred into wells containing NK2A-LPS and further incubated at 37 °C with continuous shaking for 24 h. The optical density (OD600) data were analyzed, and growth curve graphs were generated.

[3] = system: MDR Salmonella enterica serovar Heidelberg (SB395); test: Growth curve assay (automated reader, OD600) with isolate SB395; format: cell-based; settings: LB broth, 10^5 CFU/well, OD600 over 24 h
[4] = system: MDR Salmonella enterica serovar Typhimurium DT193 strain 1434 (SX231); test: Growth curve assay (automated reader, OD600) with isolate SX231; format: cell-based; settings: LB broth, 10^5 CFU/well, OD600 over 24 h
[5] = system: Salmonella enterica serovar Typhimurium isolate UK-1 (SB377, non-MDR); test: Growth curve assay (automated reader, OD600) with isolate SB377; format: cell-based; settings: LB broth, ~1 × 10^5 CFU/well, 37 °C, OD600 every hour for 24 h; tested 2-20 µM
Method: (§1) Overnight cultures of a MDR Salmonella outbreak isolate (SX238) and one non-MDR Salmonella isolate (SB377) were diluted 1:1000 in LB broth to obtain approximately 1 × 10^6 colony forming units per milliliter (CFU/mL). One hundred microliters of each diluted culture were transferred into honeycomb® 100-well plates (~ 1 × 10^5 CFU/well) (Growth Curves USA, Piscataway, NJ). Bovine NK-lysin peptides (NK1, NK2A, NK2B, and NK2C) were added at the final peptide concentrations of 20, 10, 5, 3.5, 2 µM in PBS (total volume = 20 µL) with a final bacterial-peptide volume of 120 µL/well. The plates were covered with lids and placed in an automated growth curve reader (Bioscreen C; Growth Curves USA, Piscataway, NJ) which was programmed for continuous shaking at 37 °C, and optical density readings at 600 nm (OD600) were recorded every hour for 24 h. […] The optical density data were analyzed, and growth curve graphs for each isolate were generated using MS Excel. […] Twenty-four-hour growth curve assays for Salmonella isolate SX238 were repeated at different bacterial CFU (~ 1 × 10^5, 1 × 10^6, 1 × 10^7, and 1 × 10^8 CFU/mL) with NK2A (5 µM and 10 µM). Sc-NK2A was included as a control for the assay.

[6] = system: Salmonella isolates (MDR and non-MDR); test: Growth curve assay, statements over all Salmonella isolates; format: cell-based
Method: as §1

[7] = system: MDR Salmonella enterica serovar I 4,[5],12:i:- strain USDA15WA-1 (SX238); test: Growth curve assay (automated reader, OD600) with isolate SX238; format: cell-based
Method: as §1

Swiss-Webster mice = test: Mouse study of in vivo cytotoxic effects; settings: single intraperitoneal dose 100 µg (~ 4 mg/kg) in PBS, female Swiss-Webster mice, 5 per cage, 2-week observation
Method: To determine whether NK-lysin peptides show in vivo cytotoxic effects, a mouse study was conducted. Briefly, thirty 5–6 weeks old female Swiss-Webster mice (Envigo, Indianapolis, IN) were housed in groups in six individual cages (5 mice per cage) in ABSL2 facilities with ad libitum access to food and water in a 12-h light:dark cycle. After 1 week of acclimation, mice were intraperitoneally injected with a single dose of 100 µg of NK-lysin peptides (NK1, NK2A, NK2B, NK2C, or Sc-NK2A, ~ 4 mg/kg of body weight) in PBS (1 mL). Mice injected with PBS (1 mL) served as a negative control for the study. Mice were daily observed for any signs of toxicity and were euthanized 2 weeks post peptide administration.

[8] = system: MDR Salmonella outbreak isolate SX238 cytoplasmic membrane; test: Propidium iodide (PI) uptake assay; format: cell-based, Salmonella enterica serovar I 4,[5],12:i:-; settings: 5 µM peptide, 30 min, ~1 × 10^7 CFU/well in PBS, 3 µM PI
Method: The kinetics of NK2A-induced damage to Salmonella cell membranes were evaluated using PI uptake assay as described previously. Briefly, an overnight culture of MDR Salmonella outbreak isolate SX238 was centrifuged, washed with PBS, and resuspended in PBS. Ninety microliters of bacterial suspension was transferred to a 96-well opaque plate (~ 1 × 10^7 CFU/well), mixed with 10 µL of PI (final concentration = 3 µM) and incubated at 37 °C for 5 min. PBS, polymyxin B (2, 4, 25, 50 and 100 µg/mL), NK2A or Sc-NK2A (both at 2 and 5 µM) were added and PI fluorescent intensities in each well was continuously measured (15 s intervals, flex mode) using a FlexStation 3 multi-mode (fluorescent) microplate reader (Molecular Devices LLC., San Jose, CA) for up to 6 h. The excitation and emission wavelengths for PI was set up at 530 nm and 620 nm, respectively.

In the case of CC[C@H](C)[C@H](NC(=O)[C@H](CO)NC(=O)[C@H](CCCCN)NC(=O)[C@H](CS)NC(=O)[C@H](CC(C)C)NC(=O)CNC(=O)[C@H](CCCCN)NC(=O)[C@H](CC(C)C)NC(=O)[C@H](CC(C)C)NC(=O)[C@H](CCCNC(=N)N)NC(=O)[C@H](CCSC)NC(=O)[C@H](CCCCN)NC(=O)[C@H](CO)NC(=O)[C@H](CS)NC(=O)[C@H](CCSC)NC(=O)[C@H](CCCCN)NC(=O)[C@H](CO)NC(=O)[C@H](C)NC(=O)[C@@H](NC(=O)[C@H](CCC(=O)O)NC(=O)[C@@H](NC(=O)[C@@H](NC(=O)[C@@H](N)[C@@H](C)O)C(C)C)[C@@H](C)CC)C(C)C)C(=O)N[C@H](C(=O)N[C@@H](CCCCN)C(=O)N[C@@H](CCCNC(=N)N)C(=O)N[C@@H](Cc1ccccc1)C(=O)N[C@@H](CC(C)C)C(=O)N[C@@H](CCCNC(=N)N)C(=O)N[C@@H](CCCNC(=N)N)C(=O)O)[C@@H](C)O [NK2A] (H-TVIEVASKMCSKMRLLKGLCKSITKRFLRR-OH; N-terminus and C-terminus assumed), the “live/dead staining result (SYTO 9 / PI)” value (Salmonella SX238) is reported as “many dead (red) Salmonella SX238 were detected”, the “ultrastructural changes to bacterial membranes” value [1] is reported as “extensively damaged outer- and inner-membranes and cytosolic content leakage” and the “delayed bacterial growth recovery after LPS preincubation” value ([2]; 5 µM (2.2 µg) NK2A preincubated 30 min with 1.1 µg and 2.2 µg LPS) is reported as 5 to 10 h. The “effect of LPS preincubation on antimicrobial activity” value ([2]; 5 µM (2.2 µg) NK2A preincubated 30 min with 4.4 µg and 8.8 µg LPS) was “completely inhibited the antimicrobial activity of NK2A”, the “peptide concentration at which growth of SB395 was inhibited” value [3] was at least 5 µM and the “peptide concentration at which growth of SX231 was inhibited” value [4] was at least 5 µM. For the same compound, the “peptide concentration at which growth of SB377 was completely inhibited” value [5] was at least 5 µM, the “concentrations able to inhibit growth of Salmonella during 24 h” value ([6]; 24 h incubation in LB broth, MDR and non-MDR isolates) was 3.5 to 5 µM and the “final concentration to which three of the four isolates were sensitive” value ([6]; SX238, SX231, SB395, SB377 at 10^5 CFU/well, the three isolates are not named) was 3.5 µM. The “duration of growth inhibition at 2 µM” value ([7]; 2 µM peptide, LB broth (Fig. 1a)) was “up to 8 h”, the “growth inhibition of SX238 at different bacterial CFU” value ([7]; 10 µM peptide, 10^5–7 CFU/mL (10^4–6 CFU/well), 24 h growth period) was “completely inhibited growth” and the “duration of partial growth inhibition at high inoculum” value ([7]; 10 µM peptide, 10^8 CFU/mL (10^7 CFU/well)) was “up to 9 h”. The “signs of toxicity or death” value (Swiss-Webster mice) was “did not show signs of toxicity or death” and the PI uptake signal [8] was “rapid PI uptake was observed”.
